Test results reported in US7629310B2, “RhoB as a suppressor of cancer cell growth, cell transformation, and metastasis” (University of South Florida, priority 2000, dated 2009).

Assays:
[1] = test system: NIH3T3 cells; assay: Wound healing migration assay in NIH3T3 cells; format: cell-based; settings: NIH3T3, 24 hours after wounding (FIG. 8D)
Method: (§1) Parental NIH3T3 (FIG. 8A) were transiently transfected with pcDNA3 vector control, H-Ras61L, CA-PI3K, or CA-Akt in the presence or absence of RhoA or RhoB or pcDNA3 for 36 hours. The cells were then split and cultured for another 4 weeks. The plates were examined for focus formation by staining. H-Ras/3T3 cells (FIG. 8B) and PANC-1 cells (FIG. 8C) were transiently transfected with pcDNA3 vector control, CA-Akt, or WT-Akt in the presence or absence of RhoA, RhoB, or pcDNA3 for 36 hours. The cells were then split and analyzed for their migration capabilities through collagen type I coated transfilters as described in the Materials and Methods section. NIH3T3 cells (FIGS. 8D and 8E) were transiently transfected with pcDNA3 vector control, H-Ras61L, CA-Akt, or WT-Akt in the presence or absence of RhoA, RhoB, or pcDNA3 for 36 hours. The monolayers were then scratched with a 20 μl pipette tip and micro-photographed at the time points indicated for analyzing their capability to migrate into and fill the wounded area.
The ability of RhoB to inhibit cancer cell migration was further confirmed in a different assay where cells are induced to migrate by physical wounding of cells plated on fibronectin pre-coated plates.

[2] = test system: A-549 cells; assay: Focus/colony formation of A-549 cells in G418 medium; format: cell-based, human; settings: transfected A-549 cells, 3 weeks
Method: Focus Formation Assay. NIH3T3 cells were seeded into 60-mm plates (1×10^6 cell/per plate) one day prior to gene transfection. […] Two days after transfection, the cells were seeded into 60-mm plates at a density of 2.5×10^3/per plate, and maintained in DMEM medium containing 1.5% CBS. The medium was changed every 3 days. 3-4 weeks later the cells were washed once with PBS and once with PBS/methanol (1:1), then washed with fresh anhydrous methanol and covered with crystal violet stain for 1 min at room temperature. Finally, the stain was displaced with water. The focus formation assay for A-549 cells was similarly performed as above except that following the transfection the cells were cultured in DMEM complete medium containing 400 μg/ml of geneticin (G418, […], Inc.). 3 weeks later, the cells were fixed with anhydrous methanol and stained with crystal violet; the plates were photographed. All the samples were performed in triplicate and a representative of 3 independent experiments was reported in the figure(s) and averages±standard deviation reported in the table.

[3] = test system: PANC-1 cells; assay: Migration through collagen type I coated transfilters, PANC-1 cells; format: cell-based, human; settings: PANC-1 cells (FIG. 8C)
Method: as §1

[4] = test system: H-Ras/NIH3T3 cells; assay: Cell proliferation, H-Ras-transformed NIH3T3; format: cell-based; settings: H-Ras-transformed NIH3T3, 0-96 hours
Method: Cell Proliferation. Cells were collected and examined for cell number by trypan blue exclusion and hemocytometer counting under microscope at 0 h, 24 h, 48 h, 72 h and 96 h. All the samples were performed in triplicate and the averages of 3 independent experiments were reported.

[5] = test system: H-Ras/3T3 cells; assay: Migration through collagen type I coated transfilters, H-Ras/3T3 cells; format: cell-based; settings: H-Ras/3T3 cells (FIG. 8B)
Method: as §1

[6] = test system: A-549 cells; assay: Anoikis assay in A-549 cells; format: cell-based, human; settings: A-549, poly-HEMA plates, 24 hr; control 40%
Method: (§2) Anoikis Assay. Cells were collected by trypsinization, washed twice with PBS, and re-suspended in serum-free medium containing 0.5% BSA; 5.0×10^5 cells were then seeded in triplicates into 60-mm plates pre-coated with poly(2-hydroxyethylmethacrylate) (poly-HEMA, SIGMA) according to the data sheet of the agents. 24 hrs later the cellular viability was determined by trypan blue exclusion.

[7] = test system: H-Ras/NIH3T3 cells; assay: Anoikis assay in H-Ras-transformed NIH3T3 cells; format: cell-based; settings: H-Ras-transformed NIH3T3, poly-HEMA plates
Method: as §2

[8] = test system: NIH3T3 cells; assay: Anoikis assay in transfected NIH3T3 cells; format: cell-based; settings: transfected NIH3T3, poly-HEMA plates, 12 or 24 hours, vs pcDNA3 (FIG. 10B)
Method: Parental NIH3T3 cells (FIG. 10A) were transiently transfected with pcDNA3 vector, HRas61L, or Akt in the presence or absence of RhoA, RhoB, or pcDNA3 for 36 hours. The cells were then split and cultured in DMEM medium containing 2 μM 5-FU for another 48 hours. The cells were then examined for their susceptibility to 5-FU-induced apoptosis by Annexin V labeling and flow cytometry apoptosis assays as described in the Materials and Methods section. 36 hours after the transfection, a fraction of the cells from FIG. 10A were washed and re-suspended in serum-free medium and seeded into the pre-coated plates and examined for viability at different time points by Annex V and 7-AAD labeling, as shown in FIG. 10B. In FIG. 10B, the bars at each time point (0, 12, 24 hrs), left-to-right, correspond to PCD, H-Ras, AKT, RhoA, RhoB, Akt+RhoA, and Akt+RhoB, respectively. B16-F10 melanoma cells were transiently transfected with pcDNA3 vector, pcDNA-RhoA or pcDNA-RhoB; 20 hours later, the cells were examined for gene delivery by Western Blotting with anti-HA, as shown in FIG. 10C. 5×10^5 of the cells from FIG. 10A were injected into the tail veins of C57/B16 mice. The numbers of metastatic nodules per mouse lung represent an average±standard error from 5 mice per group. […]
Anoikis Assay. […] 24 hrs later the cellular viability was determined by trypan blue exclusion.

[9] = test system: H-Ras/NIH3T3 cells; assay: 5-FU-induced apoptosis (Annexin V, flow cytometry) in H-Ras-transformed NIH3T3 cells; format: cell-based
Method: Apoptosis Assay. Cells were collected by trypsinization, washed in wash buffer and stained with Annexin V and 7-AAD according to manufacturer's recommendation (PharMingen, San Diego, Calif.). Data acquisition and analysis was performed by the Flow Cytometry Core Facility at the H. Lee Moffitt Cancer Center (Tampa, Fla.). All the samples were performed in duplicate and a representative of 3 independent experiments were reported here.

Molecule	wound healing [1]	number of colonies [2]	ability to migrate through collagen type I [3]	growth rate [4]	ability to migrate through collagen type I [5]	cell death on deprivation of substratum attachment (anoikis) [6]	anoikis [7]	cell death induced by lack of attachment (anoikis) [8]	percent of apoptosis induced by 5-FU after transfection ([9]; H-Ras-transformed NIH3T3, transfected 24 hrs then 5-FU 48 hrs, control 16%) [%]	apoptosis ([9]; H-Ras-transformed NIH3T3, 5-FU 2.0 μM 48 hrs (FIG. 4B))
RhoA: closely related family member sharing 86% sequence identity with RhoB; wild-type, in HA-tagged pcDNA3, transfected as control	accelerated	593+/−43	migrated	enhanced the rate of growth	migrated	protected these cells from anoikis	slightly protected from anoikis	much lower rate of anoikis	–	–
RhoB: low molecular weight GTPase; wild-type RhoB subcloned into HA-tagged pcDNA3 and ectopically expressed by transfection	inhibited	178+/−19	dramatically hindered	inhibited the growth rate	dramatically hindered	78%	enhanced anoikis	significantly higher cell death	37	–
O=c1[nH]cc(F)c(=O)[nH]1 [5-FU, 5-fluorouracil]	–	–	–	–	–	–	–	–	–	16-18%
